# Like-named read-outs stand apart in the source and are kept apart here. Marks after values point to notes of the source that are not given here. *1 amine or outer side, *2 acyl side, *3 side chain or, on linkers, in order; H or OH if unused. Where a SMILES comes first, the peptide text is derived from it. Bridges are numbered along the chain shown (N, C = ends). [ ]: non-standard residue; d: D form. The star is where a group is joined. GABA(3R-Bn) = O=C(C[C@H](CN[*:1])Cc1ccccc1)[*:2]; X17 = CC(C)C[C@@H]1CNC[C@@H](C(=O)*)C1; X3 = CC(C)c1cccc([C@@H](CN)CC(=O)*)c1; X1 = NC[C@@H](CC(=O)*)c1cccc(Cl)c1; Dab = NCC[C@H](N)C(=O)O; Abu = CC[C@H](N)C(=O)O; Dap = NC[C@H](N)C(=O)O
# Columns and labels:
# HK-2 cells = experiment: In vitro renal cell toxicity assay (HK-2); assay type: cell-based
# In short: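 HK-2 cells seeded 7,500/well, adhered overnight, then exposed to compound for 24 h at 37° C, 5% CO2, with 5% water and 0.5% DMSO. Background-subtracted, vehicle-normalised dose-response fitted with bottom fixed at zero; IC50 reported relative to PMB in the same run, median where repeated.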
# [1] = Kidney drug level after subcutaneous dose in mouse; assay type: in vivo; settings: for Drug Level in Kidney 4 h / Drug Level in Kidney 16 h / tissue level at time at 4 h: in vivo; for Drug Level in Kidney 4 h / Drug Level in Kidney 16 h: sc, 17.2 mg/kg; for 4 hr kidney level/rel. cytotoxicity: ratio of 4 h kidney level to HK-2 IC50 relative to PMB; for tissue level at time at 4 h: mice, 17.2 mg/kg free base sc, read-out: 4 hr kidney level
# In short: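 Mice were euthanised four hours after subcutaneous dosing. Both kidneys were trimmed, weighed, snap-frozen, then homogenised with zirconium oxide beads. After centrifugation (13,000 rpm, 6 °C, 10 min), supernatants were analysed by LC-MS-MS.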
# E. coli CA58 = assay type: cell-based
# In short: (§1)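 MIC (μg/mL), duplicate runs; median value where a compound was tested repeatedly. Inoculum: colonies from 18-24 h Mueller-Hinton agar, suspended directly to 0.5 McFarland.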
# K. pneumoniae CA64 = assay type: cell-based
# In short: as §1
# P. aeruginosa CCUG 59347 = assay type: cell-based
# In short: as §1
# A. baumannii NCTC 13424 = assay type: cell-based
# Description: (§2) The inoculum was prepared by making a direct suspension of isolated colonies (selected from an 18-24 hour Mueller-Hinton agar plate) adjusted to the 0.5 McFarland standard. […] The assays were performed in duplicate. […] The MIC values are quoted in μg/mL.
# P. aeruginosa ATCC 27853 [2] = assay type: cell-based; settings: ATCC 27853
# Description: as §2
# [3] = Renal toxicity in mice, 17.2 mg/kg sc three times per day, urinary biomarkers; assay type: in vivo, mouse
# Description: Starting immediately after the first dose on day 4, mice were transferred to individual metabolic cages and urine was collected over the following 24 hours for determination of biomarker levels (albumin, cystatin C, KIM-1).
# PMB values show the range from 4 experiments and colistin from 2 experiments.
# Elevation of albumin, cystatin C or KIM-1 in the urine are signs of renal damage.
# [4] = Renal toxicity in mice, 25 mg/kg sc four doses at 8 hr intervals, biomarkers and histopathology; assay type: in vivo, mouse; settings: sc 25 mg free base/kg; for Kidney histopathology: signs of degeneration or regeneration: mice (n=6)
# Description: (§3) After the fourth dose animals were transferred into individual metabolic cages and urine collected for 24 hours for determination of urinary biomarkers. After collecting urine mice were euthanised and the kidneys harvested for histopathology.
# [5] = Renal toxicity in Cynomolgus monkey, iv infusion 7 days; assay type: in vivo; settings: Cynomolgus monkey (n=3), 20 mg/kg/dose, 3 times per day, 7 days
# Description: In a separate experiment male monkeys (n=3) were dosed with PMB for the same period at 4 mg/kg/dose. In both experiments control animals were dosed 3 times per day with saline.
# At the end of the 7 day period blood was sampled and the serum levels of blood urea nitrogen and creatinine determined as indicators of renal damage.
# Kidneys were harvested at the end of the 7 day dosing period and examined microscopically.
# A. baumannii IHMA 517303 = assay type: cell-based; settings: IHMA 517303
# Description: (§4) MIC values (μg/mL) were determined by broth microdilution under CLSI conditions.
# [6] = system: A. baumannii IHMA 851735 (OXA-23); assay type: cell-based; settings: IHMA 851735 (OXA-23)
# Description: as §4
# [7] = system: A. baumannii NCTC 13301 (OXA-23); assay type: cell-based; settings: NCTC 13301
# Description: as §4
# E. coli CDF-1 (MCR-1) = assay type: cell-based; settings: CDF-1 (MCR-1)
# Description: as §4
# E. coli IHMA 940398 = assay type: cell-based; settings: IHMA 940398
# Description: as §4
# [8] = system: K. pneumoniae IHMA 520329 (SHV-12, KPC-2); assay type: cell-based; settings: IHMA 520329 (SHV-12, KPC-2)
# Description: as §4
# [9] = system: K. pneumoniae IHMA 580884; assay type: cell-based; settings: IHMA 580884
# Description: as §4
# P. aeruginosa ATCC 27853 [10] = assay type: cell-based; settings: ATCC 27853; remark: listed apart in the source
# Description: as §4
# [11] = system: P. aeruginosa IHMA 517175; assay type: cell-based; settings: IHMA 517175
# Description: as §4
# [12] = system: P. aeruginosa IHMA 644636; assay type: cell-based; settings: IHMA 644636
# Description: as §4
# [13] = system: A. baumannii ATCC BAA-747; assay type: cell-based; settings: cation-adjusted Mueller-Hinton Broth, 18-20 h, 35° C.
# Description: as §2
# E. coli ATCC 25922 = assay type: cell-based; settings: cation-adjusted Mueller-Hinton Broth, 18-20 h, 35° C.
# Description: as §2
# K. pneumoniae ATCC 13822 = assay type: cell-based; settings: cation-adjusted Mueller-Hinton Broth, 18-20 h, 35° C.
# Description: as §2
# [14] = Renal toxicity grading by urinary biomarkers (Table A); assay type: in vivo, mouse; set-up: key: −: indistinguishable to vehicle control; ++++: strong response from all biomarkers; settings: 4 doses 8 h apart at 25 mg free base/kg/dose or 4 days at 17.2 mg free base/kg/dose; urine 16-24 h
# [15] = Renal toxicity in mice, separate experiment Example 17 vs PMB; assay type: in vivo, mouse; settings: sc 25 mg free base/kg, four doses at 8 hr intervals
# Description: as §3
# In a separate experiment Example 17 was compared with PMB.
# [16] = mice, sc three times per day 17.2 mg free base/kg, urine 24 h from day 4, geometric mean
# [17] = IC50 relative to PMB in the same experiment, 24 h
# [18] = cation-adjusted Mueller-Hinton Broth, 18-20 h, 35° C.
compound,measurement,setting,value
"CC(C)C[C@@H]1NC(=O)[C@@H](Cc2ccccc2)NC(=O)[C@H](CCN)NC(=O)[C@@H](NC(=O)[C@H](CN)NC(=O)[C@@H](NC(=O)C[C@H](CN)c2cccc(Cl)c2)[C@@H](C)O)CCNC(=O)[C@H]([C@@H](C)O)NC(=O)[C@H](CCN)NC(=O)[C@H](CCN)NC1=O [Example 5, (S)-4-amino-3-(3- chlorophenyl)butanoyl- Thr-Dap-Cyclo[Dab- Dab-DPhe-Leu-Dab- Dab-Thr]] (X1-T[Dap][Dab][Dab][dF]L[Dab][Dab]T; lactam 3-C)",HK-2 rel to PMB,HK-2 cells,11.6
same,"Drug Level in Kidney (μg/g kidney, 4 h)","[1]; mouse, 17.2 mg/kg sc",170 μg/g kidney
same,Drug Level in Kidney 4 h,[1]; mouse,170 µg/g kidney
same,Drug Level in Kidney 16 h,[1]; mouse,19 µg/g kidney
same,4 hr kidney level/rel. cytotoxicity,[1],15
same,MIC E. coli CA58,E. coli CA58; CA58,8 µg/mL
same,MIC K. pneumoniae CA64,K. pneumoniae CA64; CA64,16 µg/mL
same,MIC P. aeruginosa CCUG 59347,P. aeruginosa CCUG 59347; CCUG 59347,0.25 µg/mL
same,MIC A. baumannii NCTC 13424,A. baumannii NCTC 13424; NCTC 13424,0.06 µg/mL
same,MIC P. aeruginosa ATCC 27853,P. aeruginosa ATCC 27853 [2],0.25 µg/mL
same,"Urinary biomarkers of renal toxicity, comparison (in words)","[3]; albumin, cystatin C, KIM-1, mice 17.2 mg free base/kg three times per day",lowest levels of all 3 biomarkers
same,Kidney histopathology: signs of degeneration or regeneration,[4],None of the animals
same,Kidney microscopy: tubular degeneration,[5],1 showed mild tubular degeneration and 2 showed minimal degeneration
same,MIC A. baumannii IHMA 517303,A. baumannii IHMA 517303,>64 µg/mL
same,MIC A. baumannii IHMA 851735,[6],0.25 µg/mL
same,MIC A. baumannii NCTC 13301,[7],0.06 µg/mL
same,MIC E. coli CDF-1,E. coli CDF-1 (MCR-1),8 µg/mL
same,MIC E. coli IHMA 940398,E. coli IHMA 940398,32 µg/mL
same,MIC K. pneumoniae IHMA 520329,[8],>64 µg/mL
same,MIC K. pneumoniae IHMA 580884,[9],16 µg/mL
same,MIC P. aeruginosa ATCC 27853,P. aeruginosa ATCC 27853 [10],0.25 µg/mL
same,MIC P. aeruginosa IHMA 517175,[11],8 µg/mL
same,MIC P. aeruginosa IHMA 644636,[12],32 µg/mL
Colistin,"Albumin, urine",[3]; [16],"2,353-2,548 μg/24 h"
same,"Cystatin C, urine",[3]; [16],"1,266-1,678 ng/24 h"
same,"KIM-1, urine",[3]; [16],42-89 ng/24 h
"CC(C)C[C@@H]1NC(=O)[C@@H](Cc2ccccc2)NC(=O)[C@H](CCN)NC(=O)[C@@H](NC(=O)[C@H](CN)NC(=O)[C@@H](NC(=O)C[C@H](CN)Cc2ccccc2)[C@@H](C)O)CCNC(=O)[C@H]([C@@H](C)O)NC(=O)[C@H](CCN)NC(=O)[C@H](CCN)NC1=O [Example 9, (R)-4-amino-3- benzylbutanoyl-Thr- Dap-Cyclo[Dab-Dab- DPhe-Leu-Dab-Dab- Thr). Isomer 1] ({GABA(3R-Bn)}-T[Dap][Dab][Dab][dF]L[Dab][Dab]T; lactam 3-C)",HK-2 rel to PMB,HK-2 cells; [17],12.0
same,"Drug Level in Kidney (μg/g kidney, 4 h)","[1]; mouse, 17.2 mg/kg sc",159 μg/g kidney
same,Drug level in kidney,"[1]; mouse, 17.2 mg/kg sc, 4 hours",159 µg/g
same,tissue level at time at 4 h,[1]; mouse,159000 ng/g
same,4 hr kidney level/rel. cytotoxicity,[1],13
same,MIC E. coli CA58,E. coli CA58; [18],8 µg/mL
same,MIC K. pneumoniae CA64,K. pneumoniae CA64; [18],64 µg/mL
same,MIC P. aeruginosa CCUG 59347,P. aeruginosa CCUG 59347; [18],0.5 µg/mL
same,MIC A. baumannii ATCC BAA-747,[13],0.25 µg/mL
same,MIC E. coli ATCC 25922,E. coli ATCC 25922,0.25 µg/mL
same,MIC K. pneumoniae ATCC 13822,K. pneumoniae ATCC 13822,0.25 µg/mL
same,Kidney histopathology: signs of degeneration or regeneration,[4],None of the animals
same,"Albumin, urine","[4]; mice, urine 24 h",749 μg/24 h
same,"Cystatin C, urine","[4]; mice, urine 24 h",754 ng/24 h
same,"KIM-1, urine","[4]; mice, urine 24 h",2 ng/24 h
"CC(C)C[C@@H]1CNC[C@@H](C(=O)N[C@H](C(=O)N[C@@H](CN)C(=O)N[C@H]2CCNC(=O)[C@H]([C@@H](C)O)NC(=O)[C@H](CCN)NC(=O)[C@H](CCN)NC(=O)[C@H](CC(C)C)NC(=O)[C@@H](CC(C)C)NC(=O)[C@H](CCN)NC2=O)[C@@H](C)O)C1 [Reference Example D77, reference compound] (X17-T[Dap][Dab][Dab][dL]L[Dab][Dab]T; lactam 3-C)",Cytotoxicity (measured IC50 relative to that recorded for Polymyxin B),HK-2 cells,23**
same,Drug Level in Kidney 4 h,[1]; mouse,516 µg/g kidney
same,Drug Level in Kidney 16 h,[1]; mouse,264 µg/g kidney
same,"Renal toxicity (grade from urinary KIM-1, albumin, cystatin C)",[14],++++
CC[C@@H]1NC(=O)[C@@H](Cc2ccccc2)NC(=O)[C@H](CCN)NC(=O)[C@@H](NC(=O)[C@H](CN)NC(=O)[C@@H](NC(=O)C[C@H](CN)c2cccc(C(C)C)c2)[C@@H](C)O)CCNC(=O)[C@H]([C@@H](C)O)NC(=O)[C@H](CCN)NC(=O)[C@H](CCN)NC1=O [Example 17] (X3-T[Dap][Dab][Dab][dF][Abu][Dab][Dab]T; lactam 3-C),HK-2 rel to PMB,HK-2 cells; [17],29.0
same,tissue level at time at 4 h,[1]; mouse,231000 ng/g
same,MIC E. coli CA58,E. coli CA58; [18],8 µg/mL
same,MIC K. pneumoniae CA64,K. pneumoniae CA64; [18],16 µg/mL
same,MIC P. aeruginosa CCUG 59347,P. aeruginosa CCUG 59347; [18],0.25 µg/mL
same,MIC A. baumannii ATCC BAA-747,[13],0.06 µg/mL
same,MIC A. baumannii NCTC 13424,A. baumannii NCTC 13424; [18],0.06 µg/mL
same,Basophilic tubules (histopathology),[15]; animals per grade,3 normal/2 minimal
same,Tubular degeneration/necrosis (histopathology),[15]; animals per grade,All normal
same,"Albumin, elevation compared with vehicle control",[15]; urine,2.7×
same,"Cystatin C, elevation compared with vehicle control",[15]; urine,1.8×
same,"KIM-1, elevation compared with vehicle control",[15]; urine,4.7×
